In PMC12752747, “ENT3: A lysosomal urate transporter regulating urate disposition and macrophage inflammation” (iScience, 2025) one finds IC50 and Km data, which are given here for three molecules.

Data set [1] has as its target T1, ENT3 (equilibrative nucleoside transporter 3), ENT3-AA construct (Homo sapiens, UniProt Q9BZD2, L31A/L32A).
T1 construct: gene SLC29A3; ENT3-AA: full-length ENT3 redirected to the plasma membrane, dileucine L31L32 replaced with A31A32
T1 sequence (Q9BZD2 1-475 L31A/L32A): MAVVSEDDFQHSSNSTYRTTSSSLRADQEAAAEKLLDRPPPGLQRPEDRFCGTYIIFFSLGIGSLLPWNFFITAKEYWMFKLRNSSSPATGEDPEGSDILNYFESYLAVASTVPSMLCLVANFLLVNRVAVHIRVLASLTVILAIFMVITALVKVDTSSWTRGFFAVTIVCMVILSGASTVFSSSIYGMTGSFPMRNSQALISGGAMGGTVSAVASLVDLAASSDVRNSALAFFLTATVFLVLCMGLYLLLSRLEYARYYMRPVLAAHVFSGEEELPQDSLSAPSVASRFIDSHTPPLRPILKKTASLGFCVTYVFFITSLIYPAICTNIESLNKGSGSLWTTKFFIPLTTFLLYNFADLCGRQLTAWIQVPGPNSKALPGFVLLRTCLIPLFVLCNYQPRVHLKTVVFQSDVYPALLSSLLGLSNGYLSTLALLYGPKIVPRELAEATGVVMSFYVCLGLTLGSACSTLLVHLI
Kind of data set: inhibition of […]urate ([…]) uptake in HEK293 cells transiently expressing ENT3-AA, pH […]. The class given is cell-based.

Substrate in data set [2]: O=c1[nH]c(=O)c2[nH]c(=O)[nH]c2[nH]1
Kind of data set: cells, lysate or membranes. The format is cell-based, Homo sapiens. The note with it: proton-coupled transport.

As to `O=[N+]([O-])c1ccc(CSc2ncnc3c2ncn3C2OC(CO)C(O)C2O)cc1` (stereo not drawn) [nitrobenzylthioinosine], the IC50 (as a rule, the point on the concentration scale where inhibition reaches its midpoint) in data set [1] is 21.7 µM.

In data set [1], `OCCN(CCO)c1nc(N2CCCCC2)c2nc(N(CCO)CCO)nc(N3CCCCC3)c2n1` [dipyridamole] gave an IC50 of 7.71 µM.

B1: ENT3 (equilibrative nucleoside transporter 3), ENT3-AA construct (Homo sapiens; L31A/L32A) (protein)
chain: MAVVSEDDFQHSSNSTYRTTSSSLRADQEAAAEKLLDRPPPGLQRPEDRFCGTYIIFFSLGIGSLLPWNFFITAKEYWMFKLRNSSSPATGEDPEGSDILNYFESYLAVASTVPSMLCLVANFLLVNRVAVHIRVLASLTVILAIFMVITALVKVDTSSWTRGFFAVTIVCMVILSGASTVFSSSIYGMTGSFPMRNSQALISGGAMGGTVSAVASLVDLAASSDVRNSALAFFLTATVFLVLCMGLYLLLSRLEYARYYMRPVLAAHVFSGEEELPQDSLSAPSVASRFIDSHTPPLRPILKKTASLGFCVTYVFFITSLIYPAICTNIESLNKGSGSLWTTKFFIPLTTFLLYNFADLCGRQLTAWIQVPGPNSKALPGFVLLRTCLIPLFVLCNYQPRVHLKTVVFQSDVYPALLSSLLGLSNGYLSTLALLYGPKIVPRELAEATGVVMSFYVCLGLTLGSACSTLLVHLI
notes: ENT3-AA: full-length ENT3 redirected to the plasma membrane, dileucine L31L32 replaced with A31A32
Regarding B1, in data set [2], the Michaelis constant (Km) (commonly the concentration of substrate that gives half-maximal velocity) was determined as 1150 µM.
